# Measured values from ChEMBL document CHEMBL6177955, “Design, synthesis and biological evaluation of Golgi-targeting anion transporters as inducers of Golgiphagy and apoptosis in cancer cells” (Eur J Med Chem, 2025).
# The source made the active and inactive calls. The rule behind the calls is not given here.
# Tests used:
# Lipid bilayer [1] = assay: Vesicular anionophoric activity in large unilamellar vesicle membrane derived from egg-yolk L-alpha-phosphatidylcholine assessed as induction of relative efflux of chloride ions in presence of lithium (Li+) measured up to 300 seconds by using chloride-selective electrode; details: time <= 300.0 sec
# HepG2 [2] = assay: Cell cycle arrest in human HepG2 cells assessed as accumulation of cells at G2/M phase at 5 uM measured after 24 hrs incubation by flow cytometric analysis; format: functional
# A2780 = assay: Antiproliferative activity against human A2780 cells by MTT assay; format: functional, cell-based
# HepG2 [3] = assay: Induction of chloride ion influx in human HepG2 cells assessed as increase in intracellular chloride anions at 5 to 20 uM measured after 12 hrs incubation by chloride-sensitive dye MQAE-based CLSM imaging analysis; format: functional, cell-based; details: dose 5-20 µM
# Lipid bilayer [4] = assay: Vesicular anionophoric activity in large unilamellar vesicle membrane derived from egg-yolk L-alpha-phosphatidylcholine assessed as induction of relative efflux of chloride ions in presence of sodium (Na+) measured up to 300 seconds by using chloride-selective electrode; details: time <= 300.0 sec
# HepG2 [5] = assay: Antitumor activity against human HepG2 cells xenografted mouse model assessed as reduction in tumor weight at 5 to 10 mg/kg, ip administered once every 2 days for 21 days; format: functional, organism-based; details: dose 5-10 mg/kg, time 21.0 day
# HepG2 [6] = assay: Suppression of Golgi structural and functional protein expression in human HepG2 cells assessed as decrease in GRASP55 protein expression at 5 to 20 uM measured after 48 hrs incubation by Western blot analysis; format: cell-based; details: dose 5-20 µM
# HepG2 [7] = assay: Cytotoxicity against human HepG2 cells assessed as cell viability at 1 to 20 uM measured after 24 hrs incubation in presence of chloride anions; format: functional, cell-based; details: dose 1-20 µM
# [8] = Toxicity in mouse xenografted with human HepG2 cells assessed as body weight change at 5 to 10 mg/kg, ip administered once every 2 days for 21 days; format: organism-based; details: in vivo, 504 h, dose 5-10 mg/kg, time 21 day
# Lipid bilayer [9] = assay: Vesicular anionophoric activity in Bulky nitrobenzene membrane assessed as induction of relative efflux of chloride ions measured up to 100 hrs by using chloride-selective electrode
# HepG2 [10] = assay: Induction of autophagosome formation in human HepG2 cells assessed as green fluorescence in lysosomes by measuring pearson co-localization at 10 uM measured after 12 hrs incubation by mCherry-LC3B assay; format: functional
# HepG2 [11] = assay: Induction of apoptosis in human HepG2 cells assessed as viable cells at 10 uM measured after 24 hrs incubation by Propidium iodide/Annexin V-FITC analysis (reference value: 90.2%); format: functional; details: read-out: Activity
# HepG2 [12] = assay: Antiproliferative activity against human HepG2 cells by MTT assay; format: functional, cell-based
# [13] = Toxicity in mouse xenografted with human HepG2 cells assessed as alanine aminotransferase (ALT) in serum at 5 to 10 mg/kg, ip administered once every 2 days for 21 days; format: organism-based; details: in vivo, 504 h, dose 5-10 mg/kg, time 21 day
# Lipid bilayer [14] = assay: Vesicular anionophoric activity in large unilamellar vesicle membrane derived from egg-yolk L-alpha-phosphatidylcholine assessed as induction of relative efflux of chloride ions in presence of potassium (K+) measured up to 300 seconds by using chloride-selective electrode; details: time <= 300.0 sec
# HepG2 [15] = assay: Induction of apoptosis in human HepG2 cells assessed as necrotic cells at 10 uM measured after 24 hrs incubation by Propidium iodide/Annexin V-FITC analysis (reference value: 1.14%); format: functional
# HepG2 [16] = assay: Cell cycle arrest in human HepG2 cells assessed as accumulation of cells at G2/M phase at 20 uM measured after 24 hrs incubation by flow cytometric analysis; format: functional
# HepG2 [17] = assay: Suppression of Golgi structural and functional protein expression in human HepG2 cells assessed as decrease in GM130 protein expression at 5 to 20 uM measured after 48 hrs incubation by Western blot analysis; format: cell-based; details: dose 5-20 µM
# [18] = Toxicity in mouse xenografted with human HepG2 cells assessed as histopathological changes in spleen at 5 to 10 mg/kg, ip administered once every 2 days for 21 days by H and E staining based analysis; format: organism-based; details: in vivo, 504 h, dose 5-10 mg/kg, time 21 day
# [19] = Toxicity in mouse xenografted with human HepG2 cells assessed as histopathological changes in heart at 5 to 10 mg/kg, ip administered once every 2 days for 21 days by H and E staining based analysis; format: organism-based; details: in vivo, 504 h, dose 5-10 mg/kg, time 21 day
# HepG2 [20] = assay: Induction of apoptosis in human HepG2 cells assessed as viable cells at 20 uM measured after 24 hrs incubation by Propidium iodide/Annexin V-FITC analysis (reference value: 90.2%); format: functional; details: read-out: Activity
# Lipid bilayer [21] = assay: Vesicular anionophoric activity in large unilamellar vesicle membrane derived from egg-yolk L-alpha-phosphatidylcholine assessed as induction of relative efflux of chloride ions measured up to 300 seconds by using chloride-selective electrode
# HepG2 [22] = assay: Induction of apoptosis in human HepG2 cells assessed as viable cells at 5 uM measured after 24 hrs incubation by Propidium iodide/Annexin V-FITC analysis (reference value: 90.2%); format: functional; details: read-out: Activity
# HepG2 [23] = assay: Induction of apoptosis in human HepG2 cells assessed as early apoptotic cells at 5 uM measured after 24 hrs incubation by Propidium iodide/Annexin V-FITC analysis (reference value: 2.90%); format: functional
# HepG2 [24] = assay: Cell cycle arrest in human HepG2 cells assessed as accumulation of cells at G2/M phase at 10 uM measured after 24 hrs incubation by flow cytometric analysis; format: functional
smiles,measurement,setting,value
NS(=O)(=O)c1ccc(NC(=O)CCCCCNc2c(Nc3cc(C(F)(F)F)cc(C(F)(F)F)c3)c(=O)c2=O)cc1,Activity,Lipid bilayer [1],Active
same,Activity,HepG2 [2],6.95%
same,IC50,A2780,> 50 µM
same,Activity,HepG2 [3],Active
same,Activity,Lipid bilayer [4],Active
same,Activity,HepG2 [5],Active
same,Activity,HepG2 [6],Active
same,Activity,HepG2 [7],Active; Cytotoxicity Enhanced In Presence Of Chloride Anions
same,Activity,[8],Non-toxic
same,Activity,Lipid bilayer [9],Active; Compound Exhibit Anion Transport Activity Most Probably Through Carrier Mechanism
same,Activity,HepG2 [10],0.58
same,viability at 10 µM,HepG2 [11],50%
same,IC50,HepG2 [12],7.13 µM
same,Activity,[13],Non-toxic
same,Activity,Lipid bilayer [14],Active
same,Activity,HepG2 [15],5.17%
same,Activity,HepG2 [16],44.07%
same,Activity,HepG2 [17],Active
same,Activity,[18],Non-toxic
same,Activity,[19],Non-toxic
same,viability at 20 µM,HepG2 [20],22.1%
same,EC50,Lipid bilayer [21],1.53 mol%
same,viability at 5 µM,HepG2 [22],73.5%
same,Activity,HepG2 [23],12%
same,Activity,HepG2 [24],17.16%
